Results on two compounds are retold here after PMC11352273, “The Proapoptotic Action of Pyrrolidinedione–Thiazolidinone Hybrids towards Human Breast Carcinoma Cells Does Not Depend on Their Genotype” (Cancers, 2024).

A word on the IC50: it is the concentration that gives 50% inhibition.

Where two headings read alike, the source gives them in different places.

One assay relates to 4T1 cells. The experiment in a line: MTT assay. The class given is cell-based, murine. Conditions: Mus musculus, read-out: IC50, µM (M ± SD). The protocol: (§1) The MCF-7 and MDA-MB-231 cells were cultured in the DMEM medium containing 10% of the FBS, HCC1954, T-47D, and 4T1 cells in the RPMI-1640 medium with the addition of 10% of the FBS, and MCF-10A cells in MEGM Mammary Epithelial Cell Growth Medium BulletKit supplemented with penicillin/streptomycin cocktail and 5% of horse serum. The cells were cultured in a […] atmosphere at 5% CO2 and 37 °C. After trypsinization, cells were counted using a Scepter 3.0 handheld automated cell counter (Millipore, Burlington, MA, USA).
(§2) The MTT test was used to assess the metabolic activity of cells treated with the investigated substances following the Sigma-Aldrich manufacturer’s instructions. Briefly, compounds were added in 100 µL of the cultural medium, and cells were incubated for the next 24 and 48 h. Doxorubicin was used as a reference drug. The DMSO was added to dissolve the crystals of formazan. We used the ThermoScientific Evolution 201 UV–VIS spectrophotometer (ThermoFisher Scientific, Waltham, MA, USA) to measure the absorbance of formazan at 570 nm. The initial value of the relative number of cells in control (under 0.1% of the DMSO) was accepted as 100%. We used GraphPad Prism Version 9 to calculate the half-maximal inhibition concentration (IC50) of the studied compounds (the concentration of the drug that reduced cell viability by 50%).
A general note: Tetrazolium assays rely on reduction of a dye to a coloured formazan, in cell work by metabolically active cells.

The next assay has as its system HCC1954 cells. Nature of the assay: MTT assay. The class given is cell-based. Conditions: Homo sapiens, read-out: IC50, µM (M ± SD). The protocol: as §1, §2
The next assay deals with MCF-7 cells. The experiment in a line: MTT assay. Conditions: Homo sapiens, read-out: IC50, µM (M ± SD). The class given is cell-based. The protocol: as §1, §2
The next assay concerns MDA-MB-231 cells. The experiment in a line: MTT assay. Particulars: Homo sapiens, read-out: IC50, µM (M ± SD). The class given is cell-based. The protocol: as §1, §2
In a further assay the test system is T-47D cells. Nature of the assay: MTT assay. The class given is cell-based. Particulars: Homo sapiens, T47D, read-out: IC50, µM (M ± SD). The protocol: as §1, §2
The test system of another assay is MCF-10A cells. The experiment in a line: MTT assay. The class given is cell-based, human. Particulars: Homo sapiens, MCF-10A, MCF-10A. The protocol: as §1, §2
A further assay has as its system BECN1 in MCF-7 cells. The experiment in a line: qPCR gene expression. The assay is classed as cell-based, human. Particulars: MCF-7, 24 h, 1 µM. The protocol: (§3) Total RNA was isolated using the RNeasy Mini Kit (Qiagen, Venlo, The Netherlands) according to the manufacturer’s protocol and quantified on a NanoDrop spectrophotometer (NanoDrop™ One/OneC, ThermoFisher, Waltham, MA, USA). Next, 1 μg of RNA from every sample was reverse transcribed using a High-Capacity cDNA Reverse Transcription Kit (ThermoFisher, Waltham, MA, USA) according to the standard manufacturer’s instructions. The expression of genes, namely MAP1LC3b (Bio-Rad, Hercules, CA, USA) and BECN1 (Bio-Rad, Hercules, CA, USA), was evaluated using SsoAdvanced Universal SYBR Green Supermix (Bio-Rad, Hercules, CA, USA) on the StepOne Plus system (ThermoFisher, Waltham, MA, USA). StepOne Software v2.3 (Thermo Fisher Scientific, Waltham, MA, USA) was used for results calculations. The results were normalized to GAPDH (Bio-Rad, Hercules, CA, USA) and untreated cells (control). Data were presented as a relative expression using the 2^−ΔΔCt method.
On the technique in general: Real-time PCR tracks product formation cycle by cycle.

For assay [1], the system named is BECN1 in MDA-MB-231 cells. The experiment in a line: qPCR gene expression. The assay is classed as cell-based, human. Particulars: MDA-MB-231, 24 h, 1 µM. The protocol:
as §3

For the next assay, the system named is MAP1LC3B in MCF-7 cells. Nature of the assay: qPCR gene expression. The class given is cell-based, human. Particulars: MCF-7, 24 h, 1 µM. The protocol:
as §3

For assay [2], the system named is MAP1LC3B in MDA-MB-231 cells. The experiment in a line: qPCR gene expression. Conditions: MDA-MB-231, 24 h, 1 µM. The assay is classed as cell-based, human. The protocol: as §3
Assay [3] concerns ICAM-1 in MDA-MB-231 cells. The experiment in a line: ICAM-1 ELISA in culture supernatants. The assay is classed as cell-based, human. Conditions: for ICAM-1 concentration: 2 µM (highest dose), control 841.55 pg/mL. The protocol:
In order to determine the Beclin-1 concentration in the cell lysates, the SimpleStep ELISA (Abcam, Cambridge, UK) Kit was used. MMP-2, MMP-9, and ICAM-1 concentrations were measured in culture supernatants using high-sensitivity human SimpleStep ELISA kits (Abcam, Cambridge, UK) according to the manufacturer’s protocols. The LC3B ELISA kit (BT LAB, Shanghai, China) was used to check the protein concentration in cell lysates from analyzed breast cancer cells. The procedure for preparing the samples was shown previously.
A general note: In an ELISA, binding on a coated surface is turned into a signal by an enzyme label.

Assay [4] deals with MDA-MB-231, 4T1, MCF-7, T-47D, and HCC1954 cells. The experiment in a line: MTT assay, summary over breast carcinoma cell lines. The assay is classed as cell-based. The protocol:
as §1, §2

Assay [5] relates to mitogen-activated lymphocytes collected from the peripheral blood of a healthy donor. Also on record: method as in PMID 37579525. Conditions: cited from earlier work.
Setting [6] is: 24 h, 24 h, read-out: IC50, µM (M ± SD).
The mark [7] stands for this setting: 48 h, 48 h, read-out: IC50, µM (M ± SD).

For the compound `COc1cccc2c1C(=O)c1c(O)c3c(c(O)c1C2=O)C[C@@](O)(C(=O)CO)C[C@@H]3O[C@H]1C[C@H](N)[C@H](O)[C@H](C)O1` [Dox, doxorubicin, reference compound], the IC50 turned out to be 2.37 ± 0.25 µM in the assay with 4T1 cells (4T1, 24 h); 1.98 ± 0.21 µM with 4T1 cells (4T1, 48 h); 1.9 ± 0.11 µM with HCC1954 cells (HCC1954, 24 h); 1.15 ± 0.16 µM with HCC1954 cells (HCC1954, 48 h); 3.47 ± 0.49 µM in the assay on MCF-7 cells (MCF7, MCF-7, 24 h); 0.18 ± 0.07 µM in the assay with MCF-7 cells (MCF7, MCF-7, 48 h). In addition, the IC50 in the assay on MDA-MB-231 cells (MDA-MB-231, 24 h) is 6.18 ± 0.08 µM; in the assay with MDA-MB-231 cells (MDA-MB-231, 48 h), 1.09 ± 0.09 µM; with T-47D cells (24 h) it was 3.66 ± 0.33 µM; in the assay on T-47D cells (48 h), 2.31 ± 0.24 µM; in the assay with MCF-10A cells (setting [6]) it was 15.9 ± 0.91 µM; with MCF-10A cells (setting [7]) it was 0.23 ± 0.05 µM. Besides, the “BECN1 gene expression compared to control cells” value (with BECN1 in MCF-7 cells; in assay [1]) was “significantly increased” throughout. Besides, the “MAP1LC3B gene expression compared to control cells” value (with MAP1LC3B in MCF-7 cells; in assay [2]) was “significantly increased” in each case. This compound had an ICAM-1 concentration in assay [3] (MDA-MB-231, 24 h) of 583.04 pg/mL. For the same compound, the “ICAM-1 concentration versus control” value in assay [3] (MDA-MB-231, 24 h, 1.0 and 1.5 µM) was “increased”.
For `O=C1CC(N2C(=O)C(=CC(Cl)=Cc3ccc([N+](=O)[O-])cc3)SC2=S)C(=O)N1c1ccc(O)cc1` (stereo not shown) [Les-6287, 1-(4-hydroxyphenyl)-3-[5-[2-chloro-3-(4-nitrophenyl)prop-2-enylidene]-4-oxo-2-thioxothiazolidine-3-yl]pyrrolidine-2,5-dione], the IC50 in the assay on 4T1 cells (4T1, 24 h) is 1.6 ± 0.14 µM; with 4T1 cells (4T1, 48 h), 1.62 ± 0.21 µM; in the assay on HCC1954 cells (HCC1954, 24 h) it was 2.52 ± 0.65 µM; with HCC1954 cells (HCC1954, 48 h), 2.25 ± 0.64 µM; in the assay on MCF-7 cells (MCF7, MCF-7, 24 h) it was 2.34 ± 0.16 µM; in the assay with MCF-7 cells (MCF7, MCF-7, 48 h), 1.43 ± 0.18 µM. Besides, the IC50 stood at 3.86 ± 0.24 µM in the assay on MDA-MB-231 cells (MDA-MB-231, 24 h); 1.37 ± 0.15 µM with MDA-MB-231 cells (MDA-MB-231, 48 h); 3.11 ± 0.19 µM in the assay with T-47D cells (24 h); 1.74 ± 0.25 µM with T-47D cells (48 h); 93 ± 2.29 µM in the assay on MCF-10A cells (setting [6]); 64.6 ± 0.68 µM in the assay with MCF-10A cells (setting [7]). For the same compound, the IC50 is more than 64.6 µM in the assay with MCF-10A cells (time point not specified (24 and 48 h), read-out: IC50 towards MCF-10A cells); 1.37 to 21.9 µM in [4] (Breast carcinoma cell, 24 and 48 h, all five cancer cell lines and all three hybrids together, read-out: IC50, range over breast carcinoma cell lines); 29 to 67 µM in assay [5]. The “BECN1 gene expression compared to control cells” value (in the assay with BECN1 in MCF-7 cells; in [1]) was “did not affect” each time. Besides, the “MAP1LC3B gene expression compared to control cells” value (in the assay with MAP1LC3B in MCF-7 cells; in [2]) was “did not affect” throughout. Also, the “inhibitory effect on ICAM-1 concentration relative to doxorubicin” value in assay [3] (MDA-MB-231) is given as “almost four times stronger”. In addition, the ICAM-1 concentration in [3] (MDA-MB-231, 24 h) was 157.25 pg/mL. Also, the “selectivity index (SI = IC50 for MCF-10A/IC50 for human breast tumor cells)” value in assay [4] (range over cell lines and time points) is given as 24.10–47.13.
